In series [1] the test system is TRPC channel protein in left ventricle. The series can be described thus: Isoproterenol infusion model, Western blot of TRPC isoforms in left ventricle. The format is in vivo, rat. As for the experimental part:
Western Blots. For protein sample preparation, cultured cells were lysed in extraction buffer (50 mM Tris, pH 7.5, 150 mM NaCl, 1% Triton X-100, 0.5% deoxycholic acid, 0.1% SDS) supplemented with protease inhibitors (1 mM AEBSF, 10 mg/ml aprotinin, 0.1 mM leupeptin, 2 mM EDTA). Left ventricle samples were ground under liquid nitrogen and solubilized in extraction buffer containing protease inhibitors. Homogenates were centrifuged 10 min at 4° C. at 16,000 g and supernatants recovered. Protein concentrations were determined by the bicinchoninic acid method (BCA Protein Assay, Pierce) with bovine serum albumin as a standard. Equivalent quantities of protein samples ([…]) were denatured in Laemmli buffer and resolved on Tris-glycine SDS-PAGE gels (4-20% acrylamide gradient, Invitrogen). Resolved proteins were transferred to nitrocellulose membranes, blocked in 5% nonfat dry milk, and probed with rabbit polyclonal primary antibody (diluted in TBST; 50 mM Tris, pH 7.5, 150 mM NaCl, 0.1% Tween-20) supplemented with 5% nonfat dry milk. Primary antibodies used include: anti-TRPC1 and TRPC3 (Alomone Labs) and anti-MCIP1 (Myogen, Inc). Membranes were washed, probed with a goat anti-rabbit horseradish peroxidase-conjugated secondary antibody (Southern Biotechnology Associates), and processed for enhanced chemiluminescence (SuperSignal reagent, Pierce). To verify equivalent protein loading, membranes were subsequently reprobed with a polyclonal rabbit antibody to the housekeeping gene IP90-calnexin. Densitometric analysis of immunoreactive band images was performed using a ChemiImager (Alpha Innotech). Isoproterenol Infusion. For pharmacologic induction of hypertrophy in vivo, nine to ten-week-old male Sprague-Dawley rats were anesthetized via passive inhalation of 2.0% isoflurane. When a level of surgical anesthesia was reached, an osmotic minipump (Alzet model 2001, Alza Corp., Palo Alto, Calif.) containing either vehicle (0.1% ascorbic acid in 0.9% NaCl), or isoproterenol (4.8 mg/kg/d) was subcutaneously implanted into the back between the scapulae followed by closure with 3-0 silk sutures. After 4 days of recovery, animals were sacrificed and left ventricular tissue processed for Western blot analysis as described above. Average heart weight to body weight ratios in isoproterenol versus vehicle-infused rats increased 48% (data not shown).
A general note: A western blot detects proteins with antibodies after separation by electrophoresis.

Series [2] can be described thus: Isoproterenol infusion model, heart weight to body weight ratio. To be noted: rat, isoproterenol 4.8 mg/kg/d by osmotic minipump, 4 days. The format is in vivo. As for the experimental part:
Isoproterenol Infusion. For pharmacologic induction of hypertrophy in vivo, nine to ten-week-old male Sprague-Dawley rats were anesthetized via passive inhalation of 2.0% isoflurane. When a level of surgical anesthesia was reached, an osmotic minipump (Alzet model 2001, Alza Corp., Palo Alto, Calif.) containing either vehicle (0.1% ascorbic acid in 0.9% NaCl), or isoproterenol (4.8 mg/kg/d) was subcutaneously implanted into the back between the scapulae followed by closure with 3-0 silk sutures. After 4 days of recovery, animals were sacrificed and left ventricular tissue processed for Western blot analysis as described above. Average heart weight to body weight ratios in isoproterenol versus vehicle-infused rats increased 48% (data not shown).

A further series concerns TRPC3 protein in NRVM. The series can be described thus: Western blot of TRPC3 protein in cultured NRVM exposed to hypertrophic stimuli. The format is cell-based, rat. To be noted: 48 h, phenylephrine, FBS 10%, calcineurin adenovirus MOI 25. As for the experimental part: Western Blots. For protein sample preparation, cultured cells were lysed in extraction buffer (50 mM Tris, pH 7.5, 150 mM NaCl, 1% Triton X-100, 0.5% deoxycholic acid, 0.1% SDS) supplemented with protease inhibitors (1 mM AEBSF, 10 mg/ml aprotinin, 0.1 mM leupeptin, 2 mM EDTA). Left ventricle samples were ground under liquid nitrogen and solubilized in extraction buffer containing protease inhibitors. Homogenates were centrifuged 10 min at 4° C. at 16,000 g and supernatants recovered. Protein concentrations were determined by the bicinchoninic acid method (BCA Protein Assay, Pierce) with bovine serum albumin as a standard. Equivalent quantities of protein samples ([…]) were denatured in Laemmli buffer and resolved on Tris-glycine SDS-PAGE gels (4-20% acrylamide gradient, Invitrogen). Resolved proteins were transferred to nitrocellulose membranes, blocked in 5% nonfat dry milk, and probed with rabbit polyclonal primary antibody (diluted in TBST; 50 mM Tris, pH 7.5, 150 mM NaCl, 0.1% Tween-20) supplemented with 5% nonfat dry milk. Primary antibodies used include: anti-TRPC1 and TRPC3 (Alomone Labs) and anti-MCIP1 (Myogen, Inc). Membranes were washed, probed with a goat anti-rabbit horseradish peroxidase-conjugated secondary antibody (Southern Biotechnology Associates), and processed for enhanced chemiluminescence (SuperSignal reagent, Pierce). […]

Series [3] relates to MCIP1 protein (indicator of calcineurin activity) in NRVM. The experiment in a line: Western blot of MCIP1 protein in NRVM. The format is cell-based, rat. To be noted: for expression of 38 kDa calcineurin-independent MCIP1 isoform: NRVM. As for the experimental part:
Western Blots. For protein sample preparation, cultured cells were lysed in extraction buffer (50 mM Tris, pH 7.5, 150 mM NaCl, 1% Triton X-100, 0.5% deoxycholic acid, 0.1% SDS) supplemented with protease inhibitors (1 mM AEBSF, 10 mg/ml aprotinin, 0.1 mM leupeptin, 2 mM EDTA). Left ventricle samples were ground under liquid nitrogen and solubilized in extraction buffer containing protease inhibitors. Homogenates were centrifuged 10 min at 4° C. at 16,000 g and supernatants recovered. Protein concentrations were determined by the bicinchoninic acid method (BCA Protein Assay, Pierce) with bovine serum albumin as a standard. Equivalent quantities of protein samples ([…]) were denatured in Laemmli buffer and resolved on Tris-glycine SDS-PAGE gels (4-20% acrylamide gradient, Invitrogen). Resolved proteins were transferred to nitrocellulose membranes, blocked in 5% nonfat dry milk, and probed with rabbit polyclonal primary antibody (diluted in TBST; 50 mM Tris, pH 7.5, 150 mM NaCl, 0.1% Tween-20) supplemented with 5% nonfat dry milk. Primary antibodies used include: anti-TRPC1 and TRPC3 (Alomone Labs) and anti-MCIP1 (Myogen, Inc). Membranes were washed, probed with a goat anti-rabbit horseradish peroxidase-conjugated secondary antibody (Southern Biotechnology Associates), and processed for enhanced chemiluminescence (SuperSignal reagent, Pierce). To verify equivalent protein loading, membranes were subsequently reprobed with a polyclonal rabbit antibody to the housekeeping gene IP90-calnexin. Densitometric analysis of immunoreactive band images was performed using a ChemiImager (Alpha Innotech).

Series [4] deals with arachidonic acid-activated calcium channels. To be noted: Luo et al., 2001; cited from earlier work.
Another series has as its system ryanodine receptors. To be noted: Maruyama et al., 1997; cited from earlier work.
The subject of series [5] is purinergic P2X receptor calcium channels. To be noted: cited from earlier work.
In series [6] the test system is calcium-activated chloride channels. To be noted: Chorna-Ornan et al., 2001; cited from earlier work.
In series [7] the test system is voltage-gated calcium channels. To be noted: Maruyama et al., 1997; cited from earlier work.
Series [8] has as its system S-nitrosylation-activated calcium channels. To be noted: Van Rossum et al., 2000; cited from earlier work.
Series [9] has as its system neonatal rat ventricular myocytes (NRVM). As for the experimental part: NRVM culture. […] Myocyte preparations were pre-plated in Dulbecco's modified Eagle's medium (DMEM, Cellgro), supplemented with 10% (v/v) fetal bovine serum (FBS, HyClone), 4 mM L-glutamine and 1% penicillin/streptomycin for 1 hr at 37° C. to reduce fibroblast contamination, then plated at a density of 2.5×10^5 cells per well on 6-well tissue culture plates (or 10,000 cells/well on 96-well tissue culture plates) coated with a 0.2% (w/v) gelatin solution.
For infection with calcineurin adenovirus, NRVM were exposed to adenovirus at a multiplicity of infection (MOI) of 25 for 48 h prior to analysis.
Hypertrophy and Toxicity Assays. Primary hypertrophy endpoints for NRVM included quantitation of ANF secretion, total cellular protein and cell volume. ANF in media supernatants was quantitated by competitive ELISA using a monoclonal anti-ANF antibody (Biodesign) and a biotinylated ANF peptide (Phoenix Peptide). Total cellular protein was quantitated by standard Coomassie dye-binding assay; cells were lysed in protein assay reagent (BioRad) and absorbance at A595 was measured after 1 hr. […] After recovery by centrifugation, cell pellets were washed in PBS, resuspended in 10 ml IsoFlow electrolyte solution (Beckman-Coulter) and analyzed with a Z2 Coulter Particle Counter and Size Analyzer (Beckman-Coulter). […]

Entries after “also recorded” stand apart in the source; their conditions may differ.

Consider `CC(C)NCC(O)c1ccc(O)c(O)c1` (stereo not drawn) [isoproterenol], for which, in [1] (Rat iso model), the TRPC3 protein expression result was “↑” and the TRPC5 protein expression entry is reported as “increased expression”. For the same molecule, the TRPC5 protein expression entry in series [1] (Rat iso model, listed as iso) is listed as “↑”. Besides, the “induction of ventricular TRPC3 protein expression” value in [1] (rat, chronic isoproterenol infusion, densitometry) is listed as “approximately three-fold”. For the same molecule, the “increase of average heart weight to body weight ratio versus vehicle-infused rats” value in series [2] is listed as 48%.

For `CNC[C@H](O)c1cccc(O)c1` [phenylephrine], in the series on TRPC3 protein in NRVM, the “expression of TRPC3 channel protein in cardiomyocytes” value is on record as “significantly increased”. Besides, the “expression of 38 kDa calcineurin-independent MCIP1 isoform” value in [3] is “unaffected”. The “expression of 28 kDa MCIP1 protein” value in [3] (NRVM stimulated with phenylephrine) was “strongly induced”.

For the molecule `NCCOB(c1ccccc1)c1ccccc1` [Compound 2-APB, 2-amino-ethoxydiphenyl borane], the “inhibition of arachidonic acid-activated calcium channels” value in series [4] is listed as “not inhibited”. Also, the “inhibition of ryanodine receptors” value with ryanodine receptors is given as “not inhibited”. Further, the “inhibition of purinergic P2X receptor calcium channels” value in [5] is “not inhibited”. Further, in [6], the “inhibition of calcium-activated chloride channels” value is “not inhibited”. In series [7], the “inhibition of voltage-gated calcium channels” value is given as “not inhibited”. Moreover, the “inhibition of S-nitrosylation-activated calcium channels” value in series [8] is “not inhibited”. Further, the “cytotoxicity as measured by adenylate kinase release” value in series [9] (48 hours, 0.3 to 30 μM) was “no significant cytotoxicity; also recorded: no significant toxicity was observed at any concentration”. Further, the “expression of 38 kDa calcineurin-independent MCIP1 isoform” value in series [3] is listed as “unaffected”. Moreover, the “PE-dependent induction of 28 kDa MCIP1 protein” value in [3] (PE-stimulated NRVM, increasing concentrations) is reported as “attenuates; also recorded: attenuated induction”.

Turning to Triton X-100, in [9] (0.1% Triton X-100, positive control for cytotoxicity), the “fold change in AK release versus unstimulated control” value is recorded as “approximately 6 fold”.

These data come from patent publication US20050182011A1, “Inhibition of TRP channels as a treatment for cardiac hypertrophy and heart failure” (priority 2003, published 2005).
